The nature of the experiment: Curing of powder coating formulation, conversion of epoxy groups by ATR-IR. The conditions noted are these: for Conversion 5′ 100° C. / Conversion 5′ 130° C. / Conversion 5′ 150° C. / Conversion 5′ 180° C.: Table 4, amount 1 wt. %; for Conversion 5′ 100° C. / Conversion at 5′ 100° C.: 5 min 100° C.; for Conversion 5′ 130° C. / Conversion at 5′ 130° C.: 5 min 130° C.; for Conversion 5′ 150° C. / Conversion at 5′ 150° C.: 5 min 150° C.; for Conversion 5′ 180° C.: 5 min 180° C.; for Conversion at 15′ 120° C.: 15 min 120° C. The method, then:
A powder coating formulation consisting of an acidic functional polyester and an epoxy functional polymer that cures without a catalyst at 200° C. for 20 minutes is used. The solid coating formulation is dissolved at 50% solids in methyl-iso-butyl ketone for ease of application. The curing catalyst is added in varying amounts from 0.5 up to 1.5% by weight, based on solids. The thermolatent compounds are compared with imidazole or compound 1 as a reference base. The formulation is applied at wet thickness 250 μm using a wire bar. The solvent is evaporated at room temperature during 30 minutes, and the coating formulation is cured for given times and at the specified temperature (cf. Tables 2 to 4). The curing progress is evaluated using attenuated total reflection infrared (IR) spectroscopy. The fading of the epoxy-attributable peak at 899-921 cm^−1 in comparison to the stable reference peak at 814-841 cm^−1 is used for the calculation of the conversion of epoxy groups.

Structures are written as SMILES.

Consider `CN(C)CCCNc1ccc2ccccc2n1` [Compound 16], for which the “Conversion 5′ 100° C.” value is given as 0%, the “Conversion 5′ 130° C.” value worked out at 0%, the “Conversion 5′ 150° C.” value was determined as 20% and the “Conversion 5′ 180° C.” value is 100%.
Turning to `CC(C)(C)OC(=O)OCCNc1ccccn1` [Compound 3], where the note is “amount 1.0 wt. %”, the “Conversion at 5′ 130° C.” value is on record as 22% and the “Conversion at 5′ 150° C.” value is listed as 94%. Also, where the note is “amount 1.5 wt. %”, the “Conversion at 5′ 130° C.” value worked out at 23% and the “Conversion at 5′ 150° C.” value was found to be 100%.
With `C1=CC2=NCCN2C=C1` [Compound 1, reference compound], for the setting “amount 0.5 wt. %”, the “Conversion at 5′ 100° C.” value amounted to 13% and the “Conversion at 15′ 120° C.” value is 98%.
For `c1c[nH]cn1` [imidazole, reference compound], the “Conversion 5′ 100° C.” value came to 53%, the “Conversion 5′ 130° C.” value is 74%, the “Conversion 5′ 150° C.” value is 100% and the “Conversion 5′ 180° C.” value is reported as 100%. Further, under “amount 0.5 wt. %”, the “Conversion at 5′ 100° C.” value is recorded as 26%, the “Conversion at 5′ 130° C.” value is given as 35%, the “Conversion at 5′ 150° C.” value is reported as 100% and the “Conversion at 15′ 120° C.” value is 100%.
Consider `CCNC(=O)OCCNc1ccccn1` [Compound 7], for which, where the note is “amount 1.0 wt. %”, the “Conversion at 5′ 130° C.” value is listed as 14% and the “Conversion at 5′ 150° C.” value was 95%. For the same compound, for the setting “amount 1.5 wt. %”, the “Conversion at 5′ 130° C.” value stood at 29% and the “Conversion at 5′ 150° C.” value came to 93%.
As for `OCCNc1ccccn1` [Compound 2, 2-(pyridine-2-ylamino)ethanol], for the setting “amount 0.5 wt. %”, the “Conversion at 5′ 130° C.” value was found to be 26% and the “Conversion at 5′ 150° C.” value was found to be 97%.

Values taken from patent US8969577B2, “Curable composition comprising a thermolatent base” (BASF SE, priority 2008, dated 2015).
